How the values were obtained:
p.Bacillus = test: Bactericidal activity, growth on agar medium; type: cell-based; details: 37°C, 5 Tage
Method: (§1) Die bakterizide Aktivität des Kalium N-(vinyloxyethyl)-dithiocarbamats gegenüber den Bakterien, die von der Oberfläche von Wänden und Decken der Produktionsräume von Brauereien und Fabriken zur Herstellunq von alkoholfreien Getränken ausgeschieden wurden und die zu p.p.Bacillus, Micrococcus, Pseudomonas, Escherichiae gehören, wurde geprüft.
(§2) Es wurden wäßrige Lösungen des genannten Stoffes verschiedener Konzentration hergestellt, die so berechnet wurde, daß bei Einführung von 1 ml der Lösung in 25 ml geschmolzenen agarisierten Nährboden (45-50°C) die Konzentration des Stoffes im Nährboden von 0,003 bis 0,5% betrug. In 18 bis 24 Stunden wurde auf die Oberfläche des Nährbodens 0,1 ml der wäßrigen Suspension der eintägigen reinen Bakterienkulturen aufgetragen, die am Fleisch-Pepton-Agar gezüchtet wurden. Die Suspension wurde gleichmäßig verteilt. In Kontrollschalen wurden 0,1 ml Wasser auf der Oberfläche des Närhbodens verteilt.
(§3) Die Inkubation führte man bei einer Temperatur von 37°C während 5 Tage durch.
(§4) Die effektive Wirkung des Stoffes wurde nach dem Auftreten des Bakterienwachstums an der Oberfläche des Nährbodens bewertet.

p.Micrococcus = test: Bactericidal activity, growth on agar medium; type: cell-based; details: 37°C, 5 Tage
Method: as §1, §2, §3, §4

p. Escherichiae = test: Bactericidal activity, growth on agar medium; type: cell-based; details: 37°C, 5 Tage
Method: as §1, §2, §3, §4

p.Pseudomonas = test: Bactericidal activity, growth on agar medium; type: cell-based; details: 37°C, 5 Tage
Method: as §1, §2, §3, §4

[1] = Solubility in solvents (qualitative); details: for Löslichkeit im Alkohol: Alkohol (Ethylalkohol)
[2] = tested on: Schimmelpilzen, die die Bewachsung von Oberflächen hervorrufen; test: Fungicidal activity, summary over all tested fungi; type: cell-based; details: day 5
Text: (§5) Man prüfte die funguzide Aktivität von Zink-bis-(N-vi- nyloxyethyl)dithiocarbamat gegenüber den reinen Pilzkulturen: Gladosporium resinae, Cladosporium cladosporioides, Acremonium corvum, Acremonium charticola, Penicillium charlesii Smith, Walrotiela subiculesa, Geotrichum candidum Link, Oidium, Penicillium crysogenum. Die genannten Pilze wurden von den Oberflächen der Wände und Decken von Bierbrauereien und Werken für die Herstellung von alkoholfreien Getränken ausgeschieden.
Es wurden Lösungen des Zink-bis-(N-vinyloxyethyl)di- thiocarbamats im Azeton verschiedener Konzentration hergestellt, die so berechnet wurde, daß bei der Einführung vor 1 ml Lösung in 10 ml des geschmolzenen Würzeagars (45-50°C) die Konzentration des genannten Stoffes im Medium von 0,0015 bis 0,012% betrug. In eine der Petri-Schalen wurde Nährboden mit 1 ml Azeton (Kontrolle) gegossen.
(§6) In 18 bis 20 Stunden nach dem Vergießen des Nährbodens in die Petri-Schalen führte man die Inokulation der reinen Pilzkultur durch, die vorher an einem Schräg-Würzeagar während 15 Tage gezüchtet wurden. Die Inkubation führte man bei einer Temperatur von 25 bis 27°C während 5 Tage durch. Danach wurde der Durchmesser der Pilzkolonien gemessen und der Prozentsatz der Hemmung des Wachstums des Myzeliums (S) nach der Abbott -Formel gezählt: [formula] worin dc Durchmesser der Pilzkolonien in Kontrolle ist, de =Durchmesser der Pilzkolonien in einer Schale mit dem Nährboden ist, der Zink-bis-(N-vinyloxyethyl)dithiocarbamat enthält.

weißen Mäusen = test: Acute toxicity in white mice
[3] = Storage stability (qualitative); type: physicochemical; details: result in words
[4] = tested on: Cladosporium cladosporioides; test: Fungicidal activity, inhibition of mycelium growth on wort agar; type: cell-based
Text: as §5
(§7) […] In eine der Petri-Schalen wurde Nährboden mit 1 ml Azeton (Kontrolle) gegossen.
as §6

Acremonium corvum = test: as above; type: cell-based
Text: as §5, §7, §6

Oidium = test: as above; type: cell-based
Text: as §5, §7, §6

Walrotiela subiculesa = test: as above; type: cell-based
Text: as §5, §7, §6

Penicillium chrysogenum = test: as above; type: cell-based
Text: as §5, §7, §6

Geotrichum candidum Link = test: as above; type: cell-based
Text: as §5, §7, §6

[5] = tested on: Penicillium charlesii Smith; test: as above; type: cell-based
Text: as §5, §7, §6

Acremonium charticola = test: as above; type: cell-based
Text: as §5, §7, §6

Cladosporium resinae = test: as above; type: cell-based
Text: as §5, §7, §6

[6] = Konzentration des Stoffes 0,1 % (0,10)
[7] = Konzentration des Stoffes 0,05 %
[8] = Konzentration des Stoffes 0,15 %
[9] = Konzentration des Stoffes 0,0015 %
[10] = Konzentration des Stoffes 0,003 %
[11] = Konzentration des Stoffes 0,006 %
[12] = Konzentration des Stoffes 0,012 %

## Kupfer-N-(vinyloxyethyl)dithiocarbamat
p.Bacillus
  Konzentration der Salze der N-(vinyloxyethyl)dithiocarbaminsäure (100%), die das Wachstum der Bakterien am 5. Tag des Wachstums hemmen, p.Bacillus: 0,25%
p.Micrococcus
  Konzentration der Salze der N-(vinyloxyethyl)dithiocarbaminsäure (100%), die das Wachstum der Bakterien am 5. Tag des Wachstums hemmen, p.Micrococcus: 0,25%
p. Escherichiae
  Konzentration der Salze der N-(vinyloxyethyl)dithiocarbaminsäure (100%), die das Wachstum der Bakterien am 5. Tag des Wachstums hemmen, p. Escherichiae: 0,25%
p.Pseudomonas
  Konzentration der Salze der N-(vinyloxyethyl)dithiocarbaminsäure (100%), die das Wachstum der Bakterien am 5. Tag des Wachstums hemmen, p.Pseudomonas: 0,25%
[1]
  Löslichkeit im Alkohol: teilweise löslich
  Löslichkeit im Azeton: teilweise löslich
  Löslichkeit im Dimethylsulfoxid: gut
  Löslichkeit in Wasser: unlöslich
[1]; Diethylether
  Löslichkeit im Diethylether: unlöslich
[2]
  Konzentration, bei der die Entwicklung aller untersuchten Pilze vollständig gehemmt wurde: 0,15%
weißen Mäusen; intraabdominale Einführung bei weißen Mäusen
  LD50: 267 mg/kg
[3]
  Lagerbeständigkeit: lagerbeständig
[4]; [6]
  Hemmung des Myzeliums am 5. Tag des Wachstums, Cladosporium cladosporioides: 100%
[4]; [7]
  Hemmung des Myzeliums am 5. Tag des Wachstums, Cladosporium cladosporioides: 45%
[4]; [8]
  Hemmung des Myzeliums am 5. Tag des Wachstums, Cladosporium cladosporioides: 100%
Acremonium corvum; [6]
  Hemmung des Myzeliums am 5. Tag des Wachstums, Acremonium corvum: 100%
Acremonium corvum; [7]
  Hemmung des Myzeliums am 5. Tag des Wachstums, Acremonium corvum: 50%
Acremonium corvum; [8]
  Hemmung des Myzeliums am 5. Tag des Wachstums, Acremonium corvum: 100%
Oidium; Konzentration des Stoffes 0,1 %
  Hemmung des Myzeliums am 5. Tag des Wachstums, Oidium: 67%
Oidium; [7]
  Hemmung des Myzeliums am 5. Tag des Wachstums, Oidium: 0%
Oidium; [8]
  Hemmung des Myzeliums am 5. Tag des Wachstums, Oidium: 100%
Walrotiela subiculesa; [6]
  Hemmung des Myzeliums am 5. Tag des Wachstums, Walrotiela subiculesa: 100%
Walrotiela subiculesa; [7]
  Hemmung des Myzeliums am 5. Tag des Wachstums, Walrotiela subiculesa: 30%
Walrotiela subiculesa; [8]
  Hemmung des Myzeliums am 5. Tag des Wachstums, Walrotiela subiculesa: 100%
Penicillium chrysogenum; [6]
  Hemmung des Myzeliums am 5. Tag des Wachstums, Penicillium chrysogenum: 24%
Penicillium chrysogenum; [7]
  Hemmung des Myzeliums am 5. Tag des Wachstums, Penicillium chrysogenum: 4%
Penicillium chrysogenum; [8]
  Hemmung des Myzeliums am 5. Tag des Wachstums, Penicillium chrysogenum: 85%
Geotrichum candidum Link; [6]
  Hemmung des Myzeliums am 5. Tag des Wachstums, Geotrichum candidum Link: 50%
Geotrichum candidum Link; [7]
  Hemmung des Myzeliums am 5. Tag des Wachstums, Geotrichum candidum Link: 3%
Geotrichum candidum Link; [8]
  Hemmung des Myzeliums am 5. Tag des Wachstums, Geotrichum candidum Link: 100%
[5]; [6]
  Hemmung des Myzeliums am 5. Tag des Wachstums, Penicillium charlesii Smith: 56%
[5]; [7]
  Hemmung des Myzeliums am 5. Tag des Wachstums, Penicillium charlesii Smith: 24%
[5]; [8]
  Hemmung des Myzeliums am 5. Tag des Wachstums, Penicillium charlesii Smith: 92%
Acremonium charticola; [6]
  Hemmung des Myzeliums am 5. Tag des Wachstums, Acremonium charticola: 100%
Acremonium charticola; [7]
  Hemmung des Myzeliums am 5. Tag des Wachstums, Acremonium charticola: 43%
Acremonium charticola; [8]
  Hemmung des Myzeliums am 5. Tag des Wachstums, Acremonium charticola: 100%
Cladosporium resinae; [6]
  Hemmung des Myzeliums am 5. Tag des Wachstums, Cladosporium resinae: 43%
Cladosporium resinae; [7]
  Hemmung des Myzeliums am 5. Tag des Wachstums, Cladosporium resinae: 34%
Cladosporium resinae; [8]
  Hemmung des Myzeliums am 5. Tag des Wachstums, Cladosporium resinae: 100%

## Zink-bis-(N-vinyloxyethyl)dithiocarbamat
p.Bacillus
  Konzentration der Salze der N-(vinyloxyethyl)dithiocarbaminsäure (100%), die das Wachstum der Bakterien am 5. Tag des Wachstums hemmen, p.Bacillus: 0,05%
p.Micrococcus
  Konzentration der Salze der N-(vinyloxyethyl)dithiocarbaminsäure (100%), die das Wachstum der Bakterien am 5. Tag des Wachstums hemmen, p.Micrococcus: 0,05%
p. Escherichiae
  Konzentration der Salze der N-(vinyloxyethyl)dithiocarbaminsäure (100%), die das Wachstum der Bakterien am 5. Tag des Wachstums hemmen, p. Escherichiae: 0,05%
p.Pseudomonas
  Konzentration der Salze der N-(vinyloxyethyl)dithiocarbaminsäure (100%), die das Wachstum der Bakterien am 5. Tag des Wachstums hemmen, p.Pseudomonas: 0,05%
[1]
  Löslichkeit im Alkohol: begrenzt
  Löslichkeit im Azeton: begrenzt
  Löslichkeit im Dimethylsulfoxid: gut
  Löslichkeit in Wasser: unlöslich
[2]
  Konzentration, bei der die Entwicklung aller untersuchten Pilze vollständig gehemmt wurde: 0,012%
weißen Mäusen; perorale Einführung bei weißen Mäusen
  LD50: 1120 + 260 mg/kg
[4]; [9]
  Hemmung des Myzeliums am 5. Tag des Wachstums, Cladosporium cladosporioides: 100%
[4]; [10]
  Hemmung des Myzeliums am 5. Tag des Wachstums, Cladosporium cladosporioides: 100%
[4]; [11]
  Hemmung des Myzeliums am 5. Tag des Wachstums, Cladosporium cladosporioides: 100%
[4]; [12]
  Hemmung des Myzeliums am 5. Tag des Wachstums, Cladosporium cladosporioides: 100%
Acremonium corvum; [9]
  Hemmung des Myzeliums am 5. Tag des Wachstums, Acremonium corvum: 40%
Acremonium corvum; [10]
  Hemmung des Myzeliums am 5. Tag des Wachstums, Acremonium corvum: 100%
Acremonium corvum; [11]
  Hemmung des Myzeliums am 5. Tag des Wachstums, Acremonium corvum: 100%
Acremonium corvum; [12]
  Hemmung des Myzeliums am 5. Tag des Wachstums, Acremonium corvum: 100%
Oidium; [9]
  Hemmung des Myzeliums am 5. Tag des Wachstums, Oidium: 80%
Oidium; [10]
  Hemmung des Myzeliums am 5. Tag des Wachstums, Oidium: 100%
Oidium; [11]
  Hemmung des Myzeliums am 5. Tag des Wachstums, Oidium: 100%
Oidium; [12]
  Hemmung des Myzeliums am 5. Tag des Wachstums, Oidium: 100%
Walrotiela subiculesa; [9]
  Hemmung des Myzeliums am 5. Tag des Wachstums, Walrotiela subiculesa: 52%
Walrotiela subiculesa; [10]
  Hemmung des Myzeliums am 5. Tag des Wachstums, Walrotiela subiculesa: 100%
Walrotiela subiculesa; [11]
  Hemmung des Myzeliums am 5. Tag des Wachstums, Walrotiela subiculesa: 100%
Walrotiela subiculesa; [12]
  Hemmung des Myzeliums am 5. Tag des Wachstums, Walrotiela subiculesa: 100%
Penicillium chrysogenum; [9]
  Hemmung des Myzeliums am 5. Tag des Wachstums, Penicillium chrysogenum: 10%
Penicillium chrysogenum; [10]
  Hemmung des Myzeliums am 5. Tag des Wachstums, Penicillium chrysogenum: 40%
Penicillium chrysogenum; [11]
  Hemmung des Myzeliums am 5. Tag des Wachstums, Penicillium chrysogenum: 80%
Penicillium chrysogenum; [12]
  Hemmung des Myzeliums am 5. Tag des Wachstums, Penicillium chrysogenum: 100%
Geotrichum candidum Link; [9]
  Hemmung des Myzeliums am 5. Tag des Wachstums, Geotrichum candidum Link: 29%
Geotrichum candidum Link; [10]
  Hemmung des Myzeliums am 5. Tag des Wachstums, Geotrichum candidum Link: 100%
Geotrichum candidum Link; [11]
  Hemmung des Myzeliums am 5. Tag des Wachstums, Geotrichum candidum Link: 100%
Geotrichum candidum Link; [12]
  Hemmung des Myzeliums am 5. Tag des Wachstums, Geotrichum candidum Link: 100%
[5]; [9]
  Hemmung des Myzeliums am 5. Tag des Wachstums, Penicillium charlesii Smith: 90%
[5]; [10]
  Hemmung des Myzeliums am 5. Tag des Wachstums, Penicillium charlesii Smith: 100%
[5]; [11]
  Hemmung des Myzeliums am 5. Tag des Wachstums, Penicillium charlesii Smith: 100%
[5]; [12]
  Hemmung des Myzeliums am 5. Tag des Wachstums, Penicillium charlesii Smith: 100%
Acremonium charticola; [9]
  Hemmung des Myzeliums am 5. Tag des Wachstums, Acremonium charticola: 50%
Acremonium charticola; [10]
  Hemmung des Myzeliums am 5. Tag des Wachstums, Acremonium charticola: 100%
Acremonium charticola; [11]
  Hemmung des Myzeliums am 5. Tag des Wachstums, Acremonium charticola: 100%
Acremonium charticola; [12]
  Hemmung des Myzeliums am 5. Tag des Wachstums, Acremonium charticola: 100%
Cladosporium resinae; [9]
  Hemmung des Myzeliums am 5. Tag des Wachstums, Cladosporium resinae: 37,5%
Cladosporium resinae; [10]
  Hemmung des Myzeliums am 5. Tag des Wachstums, Cladosporium resinae: 100%
Cladosporium resinae; [11]
  Hemmung des Myzeliums am 5. Tag des Wachstums, Cladosporium resinae: 100%
Cladosporium resinae; [12]
  Hemmung des Myzeliums am 5. Tag des Wachstums, Cladosporium resinae: 100%

From patent EP0256125A1, “MEANS FOR PREVENTING MICROBIOLOGICAL OVERGROWING OF HARD SURFACE” (priority 1985, dated 1987)
